The text below walks through data of EPA's ToxValDB 9.5 (doi:10.2903/j.efsa.2010.1868).

The test system of one series is Pimephales promelas. The note with it: chronic/long-term; duration: 33 days; other.
A further series deals with Bibionidae. As to conditions: chronic/long-term; duration: 26 days; development.
The test system of a further series is Apis mellifera. The note with it: acute; duration: 48 hours; oral; unspecified; mortality.
The next series relates to Perdix sp. As to conditions: acute; oral; unspecified; mortality.
Another series concerns Colinus virginianus. The note with it: reproduction developmental.
In a further series the test system is Lepomis macrochirus. As to conditions: acute; duration: 96 hours; mortality.
A further series deals with Canidae. As to conditions: oral, Dog Other, body weight.
Another series has as its system Anas platyrhynchos. The note with it: short-term; oral; feed; mortality.
The test system of a further series is Daphnia magna. The note with it: chronic/long-term; duration: 21 days; other.
The test system of the next series is Mus musculus. The note with it: acute; oral; mortality.
The test system of a further series is Typhlodromus pyri. The experiment in a line: LR50; higher = less toxic. As to conditions: chronic/long-term; duration: 7 days; mortality.

SMILES strings stand for the structures. Values after ≈ are worked out from the molar mass of the structure shown.

As to `OC(Cn1cncn1)(c1ccc(F)cc1)c1ccccc1F` (configuration not stated) [Flutriafol], the NOEC with Pimephales promelas came out at 4.8 mg/L; with Bibionidae it was 1.6 mg/L; in the series with Tagia sp. (chronic/long-term, duration: 56 days) it was 12.2 mg/kg; in the series on Colinus virginianus, 35.8 mg/kg-day; in the series on Daphnia magna it was 0.31 mg/L. Also, the LD50 was greater than 2 µg/piece with Apis mellifera, 616 mg/kg with Perdix sp. and 179 mg/kg with Mus musculus. For the same compound, the LC50 in the series on Tagia sp. (acute, duration: 14 days, mortality) is greater than 1000 mg/kg; in the series with Lepomis macrochirus, 33 µg/mL (≈ 110 µM); in the series with Anas platyrhynchos it was 435 mg/kg-day. The NOAEL came out at 1 mg/kg-day with Rattus norvegicus (chronic, duration: 2 years, organ weight); 13.5 mg/kg-day in the series with Rattus norvegicus (reproduction developmental, reproduction); 5 mg/kg-day with Canidae (chronic, duration: 1 years); 5 mg/kg-day with Canidae (subchronic, duration: 90 days). The compound also had an LR50 with Typhlodromus pyri of 204 g/ha.
Compound `NC(Cc1ncn[nH]1)C(=O)O` (configuration not stated) [1,2,4-Triazole-3-alanine] had an NOAEL with Rattus norvegicus (subchronic, duration: 90 days) of 90 mg/kg-day.
